We go through 3 molecules from PubChem BioAssay AID330 (DTP/NCI, 2004).

The structures appear in SMILES notation. Where “and” joins values, the source holds several entries; their conditions need not be identical. Equal values may be shown once. Toxic doses and inconclusive results are not listed.

The test system of this assay is P388 leukemia ip, CD2F1 mice, survival T/C. Description: NCI In Vivo Anticancer Drug Screen. Data for tumor model P388 Leukemia (intraperitoneal) in CD2F1 (CDF1) mice. The conditions noted are these: endpoint: median survival time, higher = longer survival. The procedure, abridged: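 Mice carrying the transplanted tumor received test compound or vehicle. Survival was recorded in each group, and the value is the treated-group measurement divided by that of the vehicle-treated control group.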

In the case of `CO[C@H]1C[C@](C)(O)Cc2cc3c(c(O)c21)C(=O)c1c(O)cc2c(c1C3=O)O[C@@H]1O[C@@]2(C)[C@H](O)[C@@H](N(C)C)[C@@H]1O`, the T/C was 115 % of control (dose: 1.5 mg/kg/injection, schedule: Q01DX005 (iv), vehicle: clinical formulation); 156 % of control and 166 % of control (dose: 1.56 mg/kg/injection, schedule: Q01DX009 (ip), vehicle: other); 95 % of control (dose: 1.6 mg/kg/injection, schedule: Q01DX009 (oral), vehicle: other); 158 % of control and 166 % of control (dose: 2.5 mg/kg/injection, schedule: Q01DX005 (ip), vehicle: clinical formulation); 165 % of control (dose: 2.5 mg/kg/injection, schedule: Q01DX005 (ip), vehicle: other); 124 % of control (dose: 3.0 mg/kg/injection, schedule: Q01DX005 (iv), vehicle: other). Also, the T/C was 159 % of control (dose: 3.0 mg/kg/injection, schedule: Q01DX009 (ip), vehicle: other); 157 % of control (dose: 3.12 mg/kg/injection, schedule: Q01DX009 (ip), vehicle: saline + alcohol); 100 % of control and 102 % of control (dose: 3.13 mg/kg/injection, schedule: Q01DX009 (oral), vehicle: other); 103 % of control (dose: 3.13 mg/kg/injection, schedule: Q01DX009 (oral), vehicle: saline); 156 % of control and 161 % of control (dose: 4.5 mg/kg/injection, schedule: Q01DX005 (ip), vehicle: other); 160 % of control and 169 % of control (dose: 4.5 mg/kg/injection, schedule: Q01DX005 (iv), vehicle: clinical formulation). For the same molecule, the T/C (dose: 5.0 mg/kg/injection, schedule: Q01DX005 (ip), vehicle: clinical formulation) was 185 % of control and 190 % of control; the T/C (dose: 5.0 mg/kg/injection, schedule: Q01DX005 (ip), vehicle: distilled water + Tween-80) was 158 % of control and 178 % of control; the T/C (dose: 5.0 mg/kg/injection, schedule: Q01DX005 (ip), vehicle: other) is 185 % of control; the T/C (dose: 6.25 mg/kg/injection, schedule: Q01DX009 (ip), vehicle: saline + alcohol) was 157 % of control; the T/C (dose: 6.25 mg/kg/injection, schedule: Q01DX009 (oral), vehicle: other) is 110 % of control and 113 % of control and 122 % of control; the T/C (dose: 6.25 mg/kg/injection, schedule: Q04DX003 (ip), vehicle: other) was 162 % of control and 165 % of control. The T/C is 180 % of control (dose: 6.48 mg/kg/injection, schedule: Q04DX003 (ip), vehicle: other); 172 % of control and 176 % of control (dose: 6.7 mg/kg/injection, schedule: Q01DX005 (ip), vehicle: other); 187 % of control and 197 % of control (dose: 6.7 mg/kg/injection, schedule: Q01DX005 (iv), vehicle: clinical formulation); 161 % of control and 162 % of control (dose: 6.7 mg/kg/injection, schedule: Q01DX005 (iv), vehicle: other); 235 % of control and 238 % of control (dose: 10.0 mg/kg/injection, schedule: Q01DX005 (ip), vehicle: clinical formulation); 180 % of control and 243 % of control (dose: 10.0 mg/kg/injection, schedule: Q01DX005 (ip), vehicle: distilled water + Tween-80). The T/C is 195 % of control (2×) and 218 % of control (dose: 10.0 mg/kg/injection, schedule: Q01DX005 (ip), vehicle: other); 208 % of control and 211 % of control (dose: 10.0 mg/kg/injection, schedule: Q01DX005 (iv), vehicle: clinical formulation); 176 % of control and 193 % of control (dose: 10.0 mg/kg/injection, schedule: Q01DX005 (iv), vehicle: other); 183 % of control (dose: 10.8 mg/kg/injection, schedule: Q04DX003 (ip), vehicle: other); 155 % of control and 157 % of control (dose: 12.5 mg/kg/injection, schedule: Q01DX001 (ip), vehicle: other); 103 % of control (dose: 12.5 mg/kg/injection, schedule: Q01DX001 (sc), vehicle: other). Further, the T/C runs as follows: (dose: 12.5 mg/kg/injection, schedule: Q01DX009 (ip), vehicle: saline + alcohol) 178 % of control; (dose: 12.5 mg/kg/injection, schedule: Q01DX009 (oral), vehicle: other) 158 % of control; (dose: 12.5 mg/kg/injection, schedule: Q01DX009 (oral), vehicle: saline) 156 % of control; (dose: 12.5 mg/kg/injection, schedule: Q04DX003 (ip), vehicle: other) 166 % of control and 187 % of control; (dose: 15.0 mg/kg/injection, schedule: Q01DX005 (ip), vehicle: other) 224 % of control and 237 % of control; (dose: 15.0 mg/kg/injection, schedule: Q01DX005 (iv), vehicle: clinical formulation) 215 % of control and 224 % of control. Besides, the T/C reads like this: (dose: 15.0 mg/kg/injection, schedule: Q01DX005 (iv), vehicle: other) 196 % of control; (dose: 15.0 mg/kg/injection, schedule: Q01DX009 (oral), vehicle: other) 197 % of control; (dose: 18.0 mg/kg/injection, schedule: Q04DX003 (ip), vehicle: other) 240 % of control; (dose: 20.0 mg/kg/injection, schedule: Q01DX005 (ip), vehicle: clinical formulation) 117 % of control and 284 % of control; (dose: 20.0 mg/kg/injection, schedule: Q01DX005 (ip), vehicle: distilled water + Tween-80) 270 % of control and 280 % of control; (dose: 20.0 mg/kg/injection, schedule: Q01DX005 (ip), vehicle: other) 284 % of control. Moreover, the T/C runs as follows: (dose: 22.0 mg/kg/injection, schedule: Q01DX009 (oral), vehicle: other) 231 % of control; (dose: 22.5 mg/kg/injection, schedule: Q01DX005 (ip), vehicle: other) 346 % of control; (dose: 25.0 mg/kg/injection, schedule: Q01DX001 (ip), vehicle: other) 150 % of control and 160 % of control; (dose: 25.0 mg/kg/injection, schedule: Q01DX001 (sc), vehicle: other) 106 % of control and 112 % of control; (dose: 25.0 mg/kg/injection, schedule: Q01DX009 (ip), vehicle: saline + alcohol) 231 % of control; (dose: 25.0 mg/kg/injection, schedule: Q01DX009 (oral), vehicle: other) 111 % of control and 211 % of control and 96 % of control. The T/C is 229 % of control (dose: 25.0 mg/kg/injection, schedule: Q01DX009 (oral), vehicle: saline); 192 % of control and 193 % of control (dose: 25.0 mg/kg/injection, schedule: Q04DX003 (ip), vehicle: other); 247 % of control (dose: 30.0 mg/kg/injection, schedule: Q04DX003 (ip), vehicle: other); 157 % of control and 197 % of control (dose: 50.0 mg/kg/injection, schedule: Q01DX001 (ip), vehicle: other); 100 % of control and 122 % of control (dose: 50.0 mg/kg/injection, schedule: Q01DX001 (sc), vehicle: other); 101 % of control and 103 % of control and 91 % of control (dose: 50.0 mg/kg/injection, schedule: Q01DX009 (oral), vehicle: other). Besides, the T/C was 91 % of control (dose: 50.0 mg/kg/injection, schedule: Q01DX009 (oral), vehicle: saline); 182 % of control and 252 % of control (dose: 50.0 mg/kg/injection, schedule: Q04DX003 (ip), vehicle: other); 169 % of control (dose: 100.0 mg/kg/injection, schedule: Q01DX001 (ip), vehicle: other); 105 % of control (dose: 100.0 mg/kg/injection, schedule: Q01DX001 (sc), vehicle: other); 175 % of control (dose: 200.0 mg/kg/injection, schedule: Q01DX001 (ip), vehicle: other); 95 % of control (dose: 200.0 mg/kg/injection, schedule: Q04DX003 (ip), vehicle: other).
As to `COc1cc2c(cc1OC)C1C(=O)c3ccc4c(c3OC1CO2)CC(C(C)(O)CO)O4` (stereo unspecified), the T/C was 108 % of control (dose: 10.0 mg/kg/injection, schedule: Q01DX005 (ip), vehicle: DMSO) and 107 % of control (dose: 20.0 mg/kg/injection, schedule: Q01DX005 (ip), vehicle: DMSO).
Turning to `C/C=C(\C)C(=O)OC1C(C)=C2C(C1OC(=O)CCCC)C(C)(OC(C)=O)CC(OC(=O)CCCC)C1(O)C2OC(=O)C1(C)O` (stereo unspecified), the T/C (dose: 0.37 mg/kg/injection, schedule: Q01DX009 (ip), vehicle: Klucel (hydroxypropylcellulose) (HPC)) was 92 % of control; the T/C (dose: 0.75 mg/kg/injection, schedule: Q01DX009 (ip), vehicle: Klucel (hydroxypropylcellulose) (HPC)) is 101 % of control; the T/C (dose: 1.5 mg/kg/injection, schedule: Q01DX009 (ip), vehicle: Klucel (hydroxypropylcellulose) (HPC)) was 100 % of control; the T/C (dose: 3.0 mg/kg/injection, schedule: Q01DX009 (ip), vehicle: Klucel (hydroxypropylcellulose) (HPC)) was 100 % of control.
